Source: publication PMC3433420 (PLoS ONE, 2012)
pKd: −log10 of the molar value. Residues, ends and D or L forms follow the SMILES beside them.

Legend:
Assay in all cases: FP saturation binding assay
[1] = biological target: T1, PIK3R1-NC tandem SH2 domains (Homo sapiens, UniProt P27986); conditions: high-confidence ErbB interactions
T1 construct: the tandem protein was included in our analysis with all internal amino acids linking the domains; 6X His; thioredoxin; made in house; host or cells: E. coli BL21(DE3)pLysS
Summary of the method: (§1)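 Rhodamine-labeled peptides (10 nM final) were titrated with 12 SH2 domain concentrations (0.002–10 µM) in 20 mM HEPES, 100 mM KCl, 0.1% Tween-20, 5 mM DTT, pH 7.8. After 20 min at room temperature in the dark, FP (ex 530/em 555 nm) was read. KDs came from nonlinear least-squares fits.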

[2] = biological target: SH2D2A SH2 domain (Homo sapiens, UniProt Q9NP31)
[3] = biological target: T2, PTPN11-N SH2 domain (Homo sapiens, UniProt Q06124)
T2 sequence (Q06124 6-102 limits assumed): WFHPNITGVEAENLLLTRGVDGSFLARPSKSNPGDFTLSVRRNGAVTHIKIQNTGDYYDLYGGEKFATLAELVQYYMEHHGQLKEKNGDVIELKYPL

[4] = biological target: BLK SH2 domain (Homo sapiens, UniProt P51451)
[5] = biological target: LCP2 SH2 domain (Homo sapiens, UniProt Q13094)
[6] = biological target: T3, VAV3 SH2 domain (Homo sapiens, UniProt Q9UKW4); conditions: protein VAV3, high-confidence ErbB interactions, mean of replicate hits
T3 construct: 6X His; thioredoxin; made in house; host or cells: BL21(DE3)pLysS E. coli
Summary of the method: as §1

[7] = biological target: GRB2 SH2 domain (Homo sapiens, UniProt P62993)
[8] = biological target: T4, HSH2D SH2 domain (Homo sapiens, UniProt Q96JZ2)
T4 sequence (Q96JZ2 34-125 limits assumed): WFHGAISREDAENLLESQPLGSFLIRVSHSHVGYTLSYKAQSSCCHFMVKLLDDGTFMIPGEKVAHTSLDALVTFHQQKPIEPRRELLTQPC

[9] = biological target: SHC1 SH2 domain (Homo sapiens, UniProt P29353)
Chain of SHC1 SH2 domain (P29353 488-579 limits assumed): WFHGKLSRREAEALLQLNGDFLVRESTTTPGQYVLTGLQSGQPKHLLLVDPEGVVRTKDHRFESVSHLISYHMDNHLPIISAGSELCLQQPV

T1 sequence (P27986 333-718 limits assumed): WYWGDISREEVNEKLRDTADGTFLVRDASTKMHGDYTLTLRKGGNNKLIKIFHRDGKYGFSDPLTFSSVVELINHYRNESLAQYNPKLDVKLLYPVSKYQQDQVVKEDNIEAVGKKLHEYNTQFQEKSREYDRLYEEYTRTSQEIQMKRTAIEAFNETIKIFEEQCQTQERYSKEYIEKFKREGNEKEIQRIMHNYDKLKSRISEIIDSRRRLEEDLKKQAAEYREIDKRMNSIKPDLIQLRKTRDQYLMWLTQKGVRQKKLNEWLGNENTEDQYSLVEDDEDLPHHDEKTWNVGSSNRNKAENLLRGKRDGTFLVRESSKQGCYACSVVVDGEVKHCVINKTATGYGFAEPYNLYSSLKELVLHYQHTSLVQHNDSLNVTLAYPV
T3 sequence (Q9UKW4 672-766 limits assumed): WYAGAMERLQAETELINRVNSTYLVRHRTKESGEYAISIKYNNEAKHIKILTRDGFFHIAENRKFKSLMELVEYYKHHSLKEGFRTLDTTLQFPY
Chain of GRB2 SH2 domain (P62993 60-152 limits assumed): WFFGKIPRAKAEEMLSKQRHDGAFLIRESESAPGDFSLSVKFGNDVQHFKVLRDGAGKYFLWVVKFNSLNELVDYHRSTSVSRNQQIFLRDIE
Chain of LCP2 SH2 domain (Q13094 422-530 limits assumed): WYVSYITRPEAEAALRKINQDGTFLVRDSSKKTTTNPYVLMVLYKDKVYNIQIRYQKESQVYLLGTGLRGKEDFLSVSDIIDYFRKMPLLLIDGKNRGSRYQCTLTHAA
Chain of SH2D2A SH2 domain (Q9NP31 95-186 limits assumed): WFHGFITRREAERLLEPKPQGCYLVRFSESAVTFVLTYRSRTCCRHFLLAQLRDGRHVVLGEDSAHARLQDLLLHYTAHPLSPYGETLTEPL
Chain of BLK SH2 domain (P51451 124-220 limits assumed): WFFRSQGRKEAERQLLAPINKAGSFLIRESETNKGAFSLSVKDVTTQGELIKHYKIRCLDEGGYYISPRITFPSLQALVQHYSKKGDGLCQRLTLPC

For CC(C)C[C@H](NC(=O)[C@H](Cc1ccc(OP(=O)(O)O)cc1)NC(=O)[C@H](CCC(=O)O)NC(=O)[C@H](CCC(=O)O)NC(=O)[C@H](C)NC(=O)[C@@H](N)CC(=O)O)C(=O)N[C@H](C(=O)N1CCC[C@H]1C(=O)N[C@@H](CCC(N)=O)C(=O)N[C@@H](CCC(N)=O)C(=O)NCC(=O)N[C@@H](Cc1ccccc1)C(=O)N[C@@H](CC(=O)O)C(=O)O)C(C)C [ErbB2 1023 13-mer] (HELM PEPTIDE1{D.A.E.E.[O=C([C@H](Cc1ccc(OP(=O)(O)O)cc1)N[*:1])[*:2]].L.V.P.Q.Q.G.F.D}$$$$V2.0), the pKd ([1]; Protein PIK3R1-NC, FP saturation binding, mean over replicate hits) was 5.15.

CC(C)[C@H](NC(=O)[C@H](CC(=O)O)NC(=O)[C@@H]1CCCN1C(=O)[C@H](CCC(N)=O)NC(=O)[C@H](CC(N)=O)NC(=O)[C@@H](NC(=O)[C@H](Cc1ccc(OP(=O)(O)O)cc1)NC(=O)[C@H](CCC(=O)O)NC(=O)[C@@H]1CCCN1C(=O)[C@H](CCC(N)=O)NC(=O)[C@@H]1CCCN1)C(C)C)C(=O)N[C@@H](CCCNC(=N)N)C(=O)N[C@@H](CC(=O)O)C(=O)O [ErbB2 1139 13-mer] (HELM PEPTIDE1{P.Q.P.E.[O=C([C@H](Cc1ccc(OP(=O)(O)O)cc1)N[*:1])[*:2]].V.N.Q.P.D.V.R.D}$$$$V2.0) gave a pKd [2] of 5.32 and a pKd [3] of 5.05.

Work on CC(C)C[C@H](NC(=O)[C@H](CC(N)=O)NC(=O)[C@@H](N)CC(=O)O)C(=O)N[C@@H](Cc1ccc(O)cc1)C(=O)N[C@@H](Cc1ccc(OP(=O)(O)O)cc1)C(=O)N[C@@H](Cc1c[nH]c2ccccc12)C(=O)N[C@@H](CC(=O)O)C(=O)N[C@@H](CCC(N)=O)C(=O)N[C@@H](CC(=O)O)C(=O)N1CCC[C@H]1C(=O)N1CCC[C@H]1C(=O)N[C@@H](CCC(=O)O)C(=O)N[C@@H](CC(=O)O)C(=O)O [ErbB2 1222 13-mer] (HELM PEPTIDE1{D.N.L.Y.[O=C([C@H](Cc1ccc(OP(=O)(O)O)cc1)N[*:1])[*:2]].W.D.Q.D.P.P.E.D}$$$$V2.0) yielded a pKd [4] of 4.96 and a pKd [5] of 4.93.

Compound CSCC[C@H](NC(=O)[C@H](Cc1ccc(OP(=O)(O)O)cc1)NC(=O)[C@H](CCC(=O)O)NC(=O)[C@H](Cc1ccc(O)cc1)NC(=O)CNC(=O)[C@@H](N)CC(C)C)C(=O)N[C@@H](CC(=O)O)C(=O)N[C@H](C(=O)NCC(=O)N[C@@H](CO)C(=O)N[C@@H](CC(=O)O)C(=O)N[C@@H](CC(C)C)C(=O)N[C@@H](CC(=O)O)C(=O)O)C(C)C [ErbB3 1224 13-mer] (HELM PEPTIDE1{L.G.Y.E.[O=C([C@H](Cc1ccc(OP(=O)(O)O)cc1)N[*:1])[*:2]].M.D.V.G.S.D.L.D}$$$$V2.0) has a pKd [3] of 5.32.

CSCC[C@H](NC(=O)[C@H](CCC(=O)O)NC(=O)[C@H](CCC(=O)O)NC(=O)[C@H](Cc1ccc(OP(=O)(O)O)cc1)NC(=O)CNC(=O)[C@H](CCC(N)=O)NC(=O)[C@H](CCC(=O)O)NC(=O)[C@@H](N)CO)C(=O)N[C@@H](CCCNC(=N)N)C(=O)N[C@@H](C)C(=O)N[C@@H](Cc1ccccc1)C(=O)N[C@@H](CCC(N)=O)C(=O)N[C@@H](CC(=O)O)C(=O)O [ErbB3 1289 13-mer] (HELM PEPTIDE1{S.E.Q.G.[O=C([C@H](Cc1ccc(OP(=O)(O)O)cc1)N[*:1])[*:2]].E.E.M.R.A.F.Q.D}$$$$V2.0) gave a pKd [6] of 5.08.

Work on CSCC[C@H](NC(=O)[C@H](Cc1ccc(OP(=O)(O)O)cc1)NC(=O)CNC(=O)[C@H](CCC(=O)O)NC(=O)[C@H](CCC(=O)O)NC(=O)[C@H](CC(=O)O)NC(=O)[C@H](CC(C)C)NC(=O)[C@H](CCC(=O)O)NC(=O)CNC(=O)[C@H](CCCNC(=N)N)NC(=O)[C@@H]1CCCN1)C(=O)N[C@H](C(=O)N1CCC[C@H]1C(=O)N[C@@H](CCSC)C(=O)N[C@@H](CCCNC(=N)N)C(=O)N[C@@H](CC(=O)O)C(=O)N[C@@H](CCCCN)C(=O)N[C@@H](CC(=O)O)C(=O)O)[C@@H](C)O [ErbB4 1150 18-mer] (HELM PEPTIDE1{P.R.G.E.L.D.E.E.G.[O=C([C@H](Cc1ccc(OP(=O)(O)O)cc1)N[*:1])[*:2]].M.T.P.M.R.D.K.D}$$$$V2.0) yielded a pKd ([1]; protein PIK3R1-NC, FP, mean of replicate hits) of 5.24 and a pKd [6] of 6.74.

For CC(C)C[C@H](NC(=O)[C@H](Cc1ccc(OP(=O)(O)O)cc1)NC(=O)[C@H](CC(C)C)NC(=O)[C@@H]1CCCN1C(=O)[C@H](CCC(=O)O)NC(=O)[C@H](CC(N)=O)NC(=O)[C@@H](NC(=O)[C@H](Cc1ccc(O)cc1)NC(=O)[C@H](CCC(=O)O)NC(=O)[C@H](CC(=O)O)NC(=O)[C@@H](N)CCC(=O)O)C(C)C)C(=O)N[C@@H](CC(N)=O)C(=O)N[C@H](C(=O)N[C@@H](Cc1ccccc1)C(=O)N[C@@H](C)C(=O)N[C@@H](CC(N)=O)C(=O)N[C@H](C(=O)N[C@@H](CC(=O)O)C(=O)O)[C@@H](C)O)[C@@H](C)O [ErbB4 1208 18-mer] (HELM PEPTIDE1{E.D.E.Y.V.N.E.P.L.[O=C([C@H](Cc1ccc(OP(=O)(O)O)cc1)N[*:1])[*:2]].L.N.T.F.A.N.T.D}$$$$V2.0), the pKd [7] was 5.61, the pKd [8] was 5.94 and the pKd [9] was 4.96.
